Drawing on article PMC10070013, “Apigenin improves cytotoxicity of antiretroviral drugs against HTLV-1 infected cells through the modulation of AhR signaling” (Neuroimmune Pharmacology and Therapeutics, 2023), this text covers Kd for one compound.

For assay [1], the target named is T1, aryl hydrocarbon receptor (AhR) (Homo sapiens, UniProt P35869).
T1 construct: Recombinant human AhR (LS-G13702-10)
As to the kind of experiment: Nano-ITC with recombinant protein. Format: binding.

Assay [2] deals with T2, ATP binding cassette subfamily B member 1 (ABCB1/P-gp) (Homo sapiens, UniProt P08183).
T2 construct: Recombinant human ABCB1 (LS-G142372-20)
T2 sequence (P08183 whole entry): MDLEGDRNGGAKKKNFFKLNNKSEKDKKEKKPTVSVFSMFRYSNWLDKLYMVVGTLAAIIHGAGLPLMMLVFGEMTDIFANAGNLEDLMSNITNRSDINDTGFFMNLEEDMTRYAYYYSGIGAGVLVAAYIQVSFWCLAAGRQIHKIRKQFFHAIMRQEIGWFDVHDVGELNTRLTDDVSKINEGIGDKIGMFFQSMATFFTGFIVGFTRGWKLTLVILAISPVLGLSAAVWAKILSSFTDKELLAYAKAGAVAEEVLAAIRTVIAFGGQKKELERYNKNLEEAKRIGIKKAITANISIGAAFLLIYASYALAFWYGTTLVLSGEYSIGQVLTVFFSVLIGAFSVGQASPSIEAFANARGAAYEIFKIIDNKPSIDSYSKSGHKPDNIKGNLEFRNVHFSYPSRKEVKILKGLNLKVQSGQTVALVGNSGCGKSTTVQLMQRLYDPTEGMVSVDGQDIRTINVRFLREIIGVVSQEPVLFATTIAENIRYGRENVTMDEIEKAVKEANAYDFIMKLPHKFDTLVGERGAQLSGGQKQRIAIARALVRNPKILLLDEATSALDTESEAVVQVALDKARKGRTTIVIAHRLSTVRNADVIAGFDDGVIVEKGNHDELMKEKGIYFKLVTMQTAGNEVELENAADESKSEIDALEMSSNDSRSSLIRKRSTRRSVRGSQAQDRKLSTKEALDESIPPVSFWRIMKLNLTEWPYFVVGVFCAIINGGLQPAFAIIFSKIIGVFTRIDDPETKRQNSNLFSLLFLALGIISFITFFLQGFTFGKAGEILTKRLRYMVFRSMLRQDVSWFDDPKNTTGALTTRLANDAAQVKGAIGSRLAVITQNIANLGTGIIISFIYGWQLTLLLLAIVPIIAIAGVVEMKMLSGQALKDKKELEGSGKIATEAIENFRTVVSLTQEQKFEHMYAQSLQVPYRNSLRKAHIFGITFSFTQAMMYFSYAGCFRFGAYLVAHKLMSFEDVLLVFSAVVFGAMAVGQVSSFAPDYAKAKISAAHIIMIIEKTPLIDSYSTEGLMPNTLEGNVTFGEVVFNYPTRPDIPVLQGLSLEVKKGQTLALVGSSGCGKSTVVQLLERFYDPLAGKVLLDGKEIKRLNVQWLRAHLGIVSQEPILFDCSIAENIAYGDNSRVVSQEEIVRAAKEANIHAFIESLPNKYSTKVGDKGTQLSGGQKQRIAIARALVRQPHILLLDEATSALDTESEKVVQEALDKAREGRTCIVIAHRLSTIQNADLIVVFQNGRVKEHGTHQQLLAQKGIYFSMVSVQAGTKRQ
As to the kind of experiment: Nano-ITC with recombinant protein (positive control protein).

T1 sequence (P35869 11-848): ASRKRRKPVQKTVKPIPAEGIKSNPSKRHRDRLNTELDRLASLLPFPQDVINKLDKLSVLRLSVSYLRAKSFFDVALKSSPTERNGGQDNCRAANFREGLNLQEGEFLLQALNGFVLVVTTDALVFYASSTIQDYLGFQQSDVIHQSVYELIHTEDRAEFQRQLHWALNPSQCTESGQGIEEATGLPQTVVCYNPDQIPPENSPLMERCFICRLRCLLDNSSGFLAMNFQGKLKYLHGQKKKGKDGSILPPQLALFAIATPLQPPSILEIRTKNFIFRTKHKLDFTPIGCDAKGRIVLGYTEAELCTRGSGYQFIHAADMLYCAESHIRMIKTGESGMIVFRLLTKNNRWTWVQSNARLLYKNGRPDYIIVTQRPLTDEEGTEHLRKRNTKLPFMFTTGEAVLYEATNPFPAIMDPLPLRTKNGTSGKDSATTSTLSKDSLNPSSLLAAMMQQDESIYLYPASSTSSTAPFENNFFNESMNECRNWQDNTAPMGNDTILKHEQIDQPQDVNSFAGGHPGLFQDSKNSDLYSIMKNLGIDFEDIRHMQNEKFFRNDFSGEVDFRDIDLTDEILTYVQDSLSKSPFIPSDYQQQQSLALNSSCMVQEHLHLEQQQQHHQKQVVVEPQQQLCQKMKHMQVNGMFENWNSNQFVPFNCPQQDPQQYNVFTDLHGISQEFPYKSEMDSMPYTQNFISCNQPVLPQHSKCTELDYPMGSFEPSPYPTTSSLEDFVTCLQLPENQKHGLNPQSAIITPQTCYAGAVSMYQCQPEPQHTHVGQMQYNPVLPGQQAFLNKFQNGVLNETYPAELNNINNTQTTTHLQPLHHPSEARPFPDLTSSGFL

Turning to `O=c1cc(-c2ccc(O)cc2)oc2cc(O)cc(O)c12` [Apigenin], the Kd (commonly the equilibrium constant for the complex coming apart) in assay [1] worked out at 4.24 µM; in assay [2], 1 nM.
